According to the NIST ThermoML archive (doi:10.1016/j.jct.2009.06.021):

Test: xn = mol fraction of the nth substance listed
Settings: for surface tension liquid-gas: Maximal bubble pressure; for mass density: 101 kPa, Liquid, Vibrating tube method

ClC(Cl)(Cl)Cl [tetrachloromethane] + C[S+](C)[O-]
Settings	mass density [kg/m3]	surface tension liquid-gas [mN/m]
298.15 K, x1 = 0.0674	1141.26	–
298.15 K, x1 = 0.0994	–	38.6
298.15 K, x1 = 0.101	1163.32	–
298.15 K, x1 = 0.1349	1185.11	–
298.15 K, x1 = 0.1643	1203.27	–
298.15 K, x1 = 0.1969	–	34.6
298.15 K, x1 = 0.2133	1232.98	–
298.15 K, x1 = 0.2513	–	32.9
298.15 K, x1 = 0.3045	1287.19	–
298.15 K, x1 = 0.3299	–	30.8
298.15 K, x1 = 0.383	–	29.7
298.15 K, x1 = 0.4641	1370.58	–
298.15 K, x1 = 0.5159	–	27.8
298.15 K, x1 = 0.6022	1433.93	–
298.15 K, x1 = 0.6043	–	26.8
298.15 K, x1 = 0.6909	–	25.9
298.15 K, x1 = 0.7132	1481.07	–
298.15 K, x1 = 0.7493	–	25.8
298.15 K, x1 = 0.7604	1499.6	–
298.15 K, x1 = 0.8663	–	25.4
298.15 K, x1 = 0.8683	1539.93	–
298.15 K, x1 = 0.913	1555.64	–
303.15 K, x1 = 0.0674	1135.93	–
303.15 K, x1 = 0.0994	–	38
303.15 K, x1 = 0.101	1157.83	–
303.15 K, x1 = 0.1349	1179.45	–
303.15 K, x1 = 0.1643	1197.47	–
303.15 K, x1 = 0.1969	–	34.2
303.15 K, x1 = 0.2133	1226.93	–
303.15 K, x1 = 0.2513	–	32.6
303.15 K, x1 = 0.3045	1280.68	–
303.15 K, x1 = 0.3299	–	30.4
303.15 K, x1 = 0.383	–	29.2
303.15 K, x1 = 0.4641	1363.35	–
303.15 K, x1 = 0.5159	–	27.1
303.15 K, x1 = 0.6022	1425.99	–
303.15 K, x1 = 0.6043	–	26.2
303.15 K, x1 = 0.6909	–	25.3
303.15 K, x1 = 0.7132	1472.61	–
303.15 K, x1 = 0.7493	–	25.1
303.15 K, x1 = 0.7604	1490.94	–
303.15 K, x1 = 0.8663	–	24.6
303.15 K, x1 = 0.8683	1530.74	–
303.15 K, x1 = 0.913	1546.21	–
308.15 K, x1 = 0.0674	1127.96	–
308.15 K, x1 = 0.0994	–	37.4
308.15 K, x1 = 0.101	1150.79	–
308.15 K, x1 = 0.1349	1172.11	–
308.15 K, x1 = 0.1643	1192.66	–
308.15 K, x1 = 0.1969	–	33.4
308.15 K, x1 = 0.2133	1222.1	–
308.15 K, x1 = 0.2513	–	31.8
308.15 K, x1 = 0.3045	1273.53	–
308.15 K, x1 = 0.3299	–	29.8
308.15 K, x1 = 0.383	–	28.7
308.15 K, x1 = 0.4641	1355.26	–
308.15 K, x1 = 0.5159	–	26.6
308.15 K, x1 = 0.6022	1418.04	–
308.15 K, x1 = 0.6043	–	25.6
308.15 K, x1 = 0.6909	–	24.7
308.15 K, x1 = 0.7132	1464.13	–
308.15 K, x1 = 0.7493	–	24.5
308.15 K, x1 = 0.7604	1482.25	–
308.15 K, x1 = 0.8663	–	24.2
308.15 K, x1 = 0.8683	1521.44	–
308.15 K, x1 = 0.913	1536.79	–
313.15 K, x1 = 0.0499	1116.12	–
313.15 K, x1 = 0.0994	–	36.8
313.15 K, x1 = 0.101	1146.87	–
313.15 K, x1 = 0.1349	1168.13	–
313.15 K, x1 = 0.1643	1185.85	–
313.15 K, x1 = 0.1969	–	33
313.15 K, x1 = 0.2133	1214.87	–
313.15 K, x1 = 0.2513	–	31.4
313.15 K, x1 = 0.3045	1267.49	–
313.15 K, x1 = 0.3299	–	29.2
313.15 K, x1 = 0.383	–	28.1
313.15 K, x1 = 0.4641	1348.78	–
313.15 K, x1 = 0.5159	–	26
313.15 K, x1 = 0.6022	1410.05	–
313.15 K, x1 = 0.6043	–	25
313.15 K, x1 = 0.6909	–	24.3
313.15 K, x1 = 0.7132	1455.61	–
313.15 K, x1 = 0.7493	–	23.9
313.15 K, x1 = 0.7604	1473.5	–
313.15 K, x1 = 0.8663	–	23.7
313.15 K, x1 = 0.8683	1512.23	–
313.15 K, x1 = 0.913	1527.34	–
